From patent publication US20030180295A1, “Angiocidin: a Cys-Ser-Val-Thr-Cys-Gly specific tumor cell adhesion receptor” (Philadelphia Health and Education Corporation, priority 1999, published 2003) come the findings set out here.

One test relates to Lewis lung carcinoma. Description: Survival of mice bearing Lewis lung carcinoma (IV injected cells). Type of test: in vivo. The following applies: 50 μg IV on days 1, 3, 5, 7, 9. On the procedure:
Ten mice were injected with one million Lewis lung carcinoma tumor cells in an IV injection. After 3 days of incubation, the mice were divided into two groups. One group of five mice were treated with an IV injection of 50 μg of angiocidin in Hepes buffered saline. The control group of five mice was treated with Hepes buffered saline. Mice were treated on days 1, 3, 5, 7, and 9.

For test [1], the system named is mouse Lewis lung carcinoma cells. Description: ALAMAR BLUE cell viability assay. The test is classed as cell-based. The following applies: 0 to 37 μg/ml, 24 hours. The procedure:
Bovine aortic endothelial cells (BAEC), human umbilical vein endothelial cells (HUVEC), fibroblast cells, A549 human lung carcinoma cells (A549), MDA-MB231 human breast carcinoma cells (MB231), MCF7 human breast carcinoma cells (MCF7) were treated with 37 μg/ml of receptor, or buffer alone, for 24 hours. Viability of the cells was measured using the ALAMAR BLUE™ assay, which measures the capacity of cells to metabolize the ALAMAR BLUE™ dye. The ALAMAR BLUE™ assay (available from Biosource International, Camarillo, Calif.) quantitatively measures the proliferation of cell lines and can establish the relative cytotoxicity of chemical agents. The assay incorporates a fluorometric/colorimetric growth indicator based on detection of metabolic activity. The system incorporates an oxidation-reduction (redox) indicator that both fluoresces and changes color in response to chemical reduction of growth medium resulting from cell growth. […] Data can be collected using either fluorescence-based instrumentation (530-560 nm excitation wavelength and 590 nm emission wavelength) or absorbance-based instrumentation (570 nm and 600 nm).
BAEC and BSM cells were treated with increasing concentrations of angiocidin (0, 0.625, 1.25, 2.5, 5, 15, 26 and 37 μg/ml) for 24 hours. Cell viability was measured using the ALAMAR BLUE Tm assay. […]

The test system of test [2] is Bovine aortic endothelial cells (BAEC). The test can be described thus: Microvessel stability in collagen matrix. The test is classed as cell-based. The following applies: added after 24 hours of microvessel formation, read after additional 24 hours. The procedure:
An experiment was performed to evaluate the effect of angiocidin on angiogenesis. Bovine aortic endothelial cells (BAEC) were plated on a collagen matrix. Next, the cells were over-layered with collagen. Angiocidin (37 μg/ml) was added on top of the cells in the treatment plate, and the control plate only received buffer. After 24 hours, phase contrast photomicrographs (200×) were taken. In the control plate, the BAEC cells rearranged themselves into a network of microvessels. […] The experiment in this example was performed as in Example 16, however, no treatment was given to the cells initially. After 24 hours, microvessels formed in both samples, and looked similar to the control plate in FIG. 19. Buffer and angiocidin were then added to the control and treatment plates, respectively. After an additional 24 hours, Hoffman interference photomicrographs were taken. Here, the control was not affected.

As to “angiocidin: Cys-Ser-Val-Thr-Cys-Gly (SEQ ID NO: 1)-specific thrombospondin (TSP-1) receptor protein; recombinant form of SEQ ID NO: 2 used in the Examples”, the median survival period in the test on Lewis lung carcinoma is listed as 19 days. Moreover, the cell viability result in test [1] was “does not affect the Lewis lung cells”. In addition, in test [2], the “stability of formed microvessels” value is listed as “disrupted the microvessels that had already formed”.
